In ChEMBL document CHEMBL1201862, “PubChem BioAssay data set” (2004):
Calls of active or inactive are those of the source.

What was measured:
[1] = molecular target: T1, Coagulation factor XII (Homo sapiens, UniProt P00748); assay type: functional;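 note: activated factor XIIa alpha cleaving a fluorogenic AMC peptide substrate; inhibitor potency from loss of enzyme activity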
T1 sequence (P00748 whole entry): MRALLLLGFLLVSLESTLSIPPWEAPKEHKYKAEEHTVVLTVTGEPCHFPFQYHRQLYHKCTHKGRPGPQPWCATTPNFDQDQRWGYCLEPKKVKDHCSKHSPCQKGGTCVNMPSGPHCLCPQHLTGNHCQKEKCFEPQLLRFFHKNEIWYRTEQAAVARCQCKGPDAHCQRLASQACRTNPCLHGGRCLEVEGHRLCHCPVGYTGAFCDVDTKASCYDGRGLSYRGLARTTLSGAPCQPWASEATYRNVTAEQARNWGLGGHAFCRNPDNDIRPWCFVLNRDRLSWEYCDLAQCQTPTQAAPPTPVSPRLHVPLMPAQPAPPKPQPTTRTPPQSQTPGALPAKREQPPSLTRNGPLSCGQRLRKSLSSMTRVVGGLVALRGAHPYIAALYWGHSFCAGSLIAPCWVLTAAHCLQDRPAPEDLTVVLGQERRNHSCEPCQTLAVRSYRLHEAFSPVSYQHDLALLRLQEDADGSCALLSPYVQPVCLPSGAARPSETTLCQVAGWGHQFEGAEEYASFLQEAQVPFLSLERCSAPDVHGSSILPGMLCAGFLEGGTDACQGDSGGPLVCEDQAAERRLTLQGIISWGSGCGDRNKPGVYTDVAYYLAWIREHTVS

[2] = molecular target: T2, Corticotropin-releasing factor receptor 2/Corticotropin-releasing factor-binding protein (Homo sapiens, UniProt P24387+Q13324); test: activators of CRF receptor 2 with binding protein – uHTS hits, confirmation (AID 602473); assay type: functional; conditions: read-out: EC50_Mean
T2 sequence (Q13324 whole entry): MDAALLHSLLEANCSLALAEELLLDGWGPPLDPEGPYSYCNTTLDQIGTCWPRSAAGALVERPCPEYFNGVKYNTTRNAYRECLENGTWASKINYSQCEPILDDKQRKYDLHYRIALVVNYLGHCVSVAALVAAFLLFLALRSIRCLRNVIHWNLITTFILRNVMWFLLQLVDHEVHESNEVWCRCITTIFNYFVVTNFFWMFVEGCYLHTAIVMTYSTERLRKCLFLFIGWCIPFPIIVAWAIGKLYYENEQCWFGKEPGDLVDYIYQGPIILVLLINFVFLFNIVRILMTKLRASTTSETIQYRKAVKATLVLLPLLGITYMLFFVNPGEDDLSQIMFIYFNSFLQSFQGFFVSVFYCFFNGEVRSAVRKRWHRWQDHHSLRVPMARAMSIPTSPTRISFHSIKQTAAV
T2 sequence (P24387 whole entry): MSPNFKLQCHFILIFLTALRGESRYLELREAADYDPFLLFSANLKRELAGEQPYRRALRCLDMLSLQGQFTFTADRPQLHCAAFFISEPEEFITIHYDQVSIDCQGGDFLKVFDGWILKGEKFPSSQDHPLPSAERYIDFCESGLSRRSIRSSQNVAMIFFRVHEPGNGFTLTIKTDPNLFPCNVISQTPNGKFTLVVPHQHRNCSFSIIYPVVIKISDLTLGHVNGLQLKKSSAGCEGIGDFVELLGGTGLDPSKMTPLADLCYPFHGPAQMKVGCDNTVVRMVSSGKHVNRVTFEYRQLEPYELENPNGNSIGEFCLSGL

[3] = off-target signal loss in HeLa-CEM21 co-culture – HeLa F-luc CTL cells, cherry-picked, counter-screen for HIV-1 Env fusion inhibitor project, dose response (AID 652040); assay type: functional, cell-based;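 note: potency for signal decrease marking cytotoxic or nonspecific inhibition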
[4] = inhibitors of HIV Env-driven cell fusion, dose response, cherry-pick (AID 652057); assay type: functional, cell-based
[5] = inhibitors of clade B AD8 Env fusion, dose response, cell-based, cherry-pick (AID 652062); assay type: functional;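 note: luciferase signal from cell-cell fusion driven by HIV-1 clade B AD8 Env; potency is for inhibitors of fusion seen as a drop in luminescence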
[6] = ZM109 Env clade C HIV-1 fusion inhibitors, dose response, HeLa effector, CEM target cells, luciferase, cherry-pick (AID 652058); assay type: functional, cell-based
[7] = test system: HeLa; test: HeLa cell cytotoxicity, dose response, cytotoxicity control for MITF activator project, CellTiter-Glo luminescence, cherry-pick samples (AID 540259); assay type: functional, cell-based; conditions: Homo sapiens
[8] = test system: HEK293; test: inhibitors of LMP1-driven NF-kB reporter, dose response, cell-based, HEK293, luciferase, cherry-pick (AID 588343); assay type: functional; conditions: Homo sapiens
[9] = molecular target: Cytochrome P450 3A4 (Homo sapiens, UniProt P08684);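 note: CYP3A4 tested as one member of a cytochrome P450 panel screen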
[10] = molecular target: Cytochrome P450 2C9 (Homo sapiens, UniProt P11712)
[11] = molecular target: Cytochrome P450 2D6 (Homo sapiens, UniProt P10635);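 note: CYP2D6 member of a cytochrome P450 panel assay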
[12] = molecular target: T3, Cytochrome P450 1A2 (Homo sapiens, UniProt P05177);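 note: PubChem cytochrome P450 panel assay, CYP1A2 panel member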
T3 sequence (P05177 whole entry): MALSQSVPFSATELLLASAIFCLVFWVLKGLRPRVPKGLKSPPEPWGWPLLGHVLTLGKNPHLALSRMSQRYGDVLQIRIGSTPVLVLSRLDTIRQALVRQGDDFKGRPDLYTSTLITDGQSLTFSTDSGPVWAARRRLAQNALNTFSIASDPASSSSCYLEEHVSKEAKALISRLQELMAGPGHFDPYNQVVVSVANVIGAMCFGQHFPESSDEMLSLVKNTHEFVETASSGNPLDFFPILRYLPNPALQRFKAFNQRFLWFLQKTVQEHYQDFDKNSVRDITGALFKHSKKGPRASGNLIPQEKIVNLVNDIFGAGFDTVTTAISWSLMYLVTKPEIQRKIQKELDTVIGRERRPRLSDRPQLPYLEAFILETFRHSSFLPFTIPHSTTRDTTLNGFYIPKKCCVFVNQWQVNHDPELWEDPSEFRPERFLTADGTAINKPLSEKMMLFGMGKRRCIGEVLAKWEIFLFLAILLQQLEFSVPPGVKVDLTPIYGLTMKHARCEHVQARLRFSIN

[13] = molecular target: T4, Voltage-gated N-type calcium channel alpha-1B subunit/Amyloid beta A4 precursor protein-binding family A member 1 (Homo sapiens, UniProt Q00975+Q02410); assay type: protein assay
[14] = molecular target: T4, Voltage-gated N-type calcium channel alpha-1B subunit/Amyloid beta A4 precursor protein-binding family A member 1; assay type: protein assay; remark: listed apart in the source
[15] = Shn3 3'UTR reporter inhibitors, dose response, cell-based, Clone20 osteoblasts, firefly luciferase, cherry-picked (AID 624132); assay type: functional;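 note: firefly luciferase luminescence from reporter carrying the Shn3 3'UTR in osteoblasts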
[16] = control 3'UTR Renilla luciferase suppression, dose response, counter-screen for Shn3 inhibitor project, cell-based, Clone20-Shn3RL, cherry-picked (AID 624133); assay type: functional
[17] = HepG2 cell cytotoxicity, dose response, cytotoxicity control for Shn3 inhibitor project, CellTiter-Glo, cherry-picked (AID 624134); assay type: functional, cell-based
[18] = inhibitors of intracellular T. cruzi replication, confirmation, NIH3T3 host cells, beta-gal luminescence (AID 2044); assay type: functional, cell-based;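 note: intracellular parasites grown in NIH/3T3 mouse fibroblasts as host cells; luminescent beta-galactosidase reporter signal from transgenic T. cruzi replicating inside host cells; inhibitors lower the luminescence signal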
[19] = cytotoxicity toward NIH3T3 fibroblasts, dose response, counter-screen, cell-based, ATP luminescence, mouse fibroblasts (AID 2010); assay type: functional;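 note: cells exposed to compound for about 90 hours before reading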
[20] = test system: HEK293; test: NOD2 signaling inhibitors in MDP-stimulated cells, cell-based, uHTS, luminescence (AID 2001); assay type: functional; conditions: Homo sapiens
[21] = test system: HEK293; test: NOD1 signaling inhibitors, primary screen, cell-based, luminescence, uHTS (AID 1578); assay type: functional; conditions: Homo sapiens
[22] = test system: HEK293; test: cells; assay type: functional, cell-based; conditions: Homo sapiens
[23] = test system: HEK293; test: cells; assay type: functional, cell-based; conditions: Homo sapiens; remark: listed apart in the source
[24] = test system: H4; test: Luminescence Cell-Based Dose Response HTS to Identify Activators of 5'UTR Stem-Loop Driven Prion Protein mRNA Translation in H4 Neuroglioblastoma Cells. [Related pubchem assays: 1829 (Project Summary), 1814 (Primary HTS)]; assay type: functional; conditions: Homo sapiens
[25] = cells; assay type: functional
[26] = Luminescence Cell-Based Dose Response HTS to Identify Activators of Luciferase Translation or Activity in H4 […] Cells. [Related pubchem assays: 1829 (Project Summary), 1814 (Primary HTS)]; assay type: functional
[27] = test system: Streptococcus sp. 'group A'; test: growth inhibition of control SK(-) GAS strain, dose response, counter-screen for streptokinase expression inhibitor project, luminescence, kanamycin, BacTiterGlo, confirmation (AID 1900); assay type: functional, organism-based
[28] = test system: Streptococcus; test: Group A Streptococcus viability loss, dose response, counter-screen for streptokinase expression inhibitor project, luminescence, BacTiterGlo (AID 1915); assay type: functional, organism-based;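 note: potency for reduction of bacterial viability or growth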
[29] = molecular target: T5, Zinc finger protein mex-5 (Caenorhabditis elegans, UniProt Q9XUB2); test: MEX-5/TCR-2 RNA interaction inhibitors, dose response, biochemical, C. elegans, fluorescence polarization (AID 1960)
T5 sequence (Q9XUB2 whole entry): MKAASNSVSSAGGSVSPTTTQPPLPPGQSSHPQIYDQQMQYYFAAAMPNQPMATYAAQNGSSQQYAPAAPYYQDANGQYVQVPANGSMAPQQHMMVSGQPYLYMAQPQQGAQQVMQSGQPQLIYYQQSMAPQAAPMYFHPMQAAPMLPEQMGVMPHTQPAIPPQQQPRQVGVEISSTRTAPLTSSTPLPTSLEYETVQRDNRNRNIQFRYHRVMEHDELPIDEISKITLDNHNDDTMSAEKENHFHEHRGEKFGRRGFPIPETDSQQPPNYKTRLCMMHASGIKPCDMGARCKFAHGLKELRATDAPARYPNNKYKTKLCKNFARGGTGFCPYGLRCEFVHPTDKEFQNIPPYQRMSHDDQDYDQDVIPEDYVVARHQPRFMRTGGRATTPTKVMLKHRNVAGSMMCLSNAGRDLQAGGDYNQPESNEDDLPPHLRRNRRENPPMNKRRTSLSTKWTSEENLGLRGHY

[30] = molecular target: T6, RNA-binding protein pos-1 (Caenorhabditis elegans, UniProt G5EF15); test: inhibitors of POS-1/mex-3 RNA binding, dose response, biochemical, fluorescence polarization (AID 1964);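 note: purified POS-1 fused to maltose binding protein made in E. coli; potency of compounds blocking POS-1 binding to fluorescent RNA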
T6 sequence (G5EF15 whole entry): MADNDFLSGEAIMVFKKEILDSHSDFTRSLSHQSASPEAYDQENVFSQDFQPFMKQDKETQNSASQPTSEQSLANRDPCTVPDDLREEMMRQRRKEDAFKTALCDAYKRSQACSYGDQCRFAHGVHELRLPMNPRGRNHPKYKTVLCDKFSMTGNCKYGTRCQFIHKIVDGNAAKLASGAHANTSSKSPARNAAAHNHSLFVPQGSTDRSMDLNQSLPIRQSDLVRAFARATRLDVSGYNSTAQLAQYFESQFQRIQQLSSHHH

T4 sequence (Q00975 whole entry): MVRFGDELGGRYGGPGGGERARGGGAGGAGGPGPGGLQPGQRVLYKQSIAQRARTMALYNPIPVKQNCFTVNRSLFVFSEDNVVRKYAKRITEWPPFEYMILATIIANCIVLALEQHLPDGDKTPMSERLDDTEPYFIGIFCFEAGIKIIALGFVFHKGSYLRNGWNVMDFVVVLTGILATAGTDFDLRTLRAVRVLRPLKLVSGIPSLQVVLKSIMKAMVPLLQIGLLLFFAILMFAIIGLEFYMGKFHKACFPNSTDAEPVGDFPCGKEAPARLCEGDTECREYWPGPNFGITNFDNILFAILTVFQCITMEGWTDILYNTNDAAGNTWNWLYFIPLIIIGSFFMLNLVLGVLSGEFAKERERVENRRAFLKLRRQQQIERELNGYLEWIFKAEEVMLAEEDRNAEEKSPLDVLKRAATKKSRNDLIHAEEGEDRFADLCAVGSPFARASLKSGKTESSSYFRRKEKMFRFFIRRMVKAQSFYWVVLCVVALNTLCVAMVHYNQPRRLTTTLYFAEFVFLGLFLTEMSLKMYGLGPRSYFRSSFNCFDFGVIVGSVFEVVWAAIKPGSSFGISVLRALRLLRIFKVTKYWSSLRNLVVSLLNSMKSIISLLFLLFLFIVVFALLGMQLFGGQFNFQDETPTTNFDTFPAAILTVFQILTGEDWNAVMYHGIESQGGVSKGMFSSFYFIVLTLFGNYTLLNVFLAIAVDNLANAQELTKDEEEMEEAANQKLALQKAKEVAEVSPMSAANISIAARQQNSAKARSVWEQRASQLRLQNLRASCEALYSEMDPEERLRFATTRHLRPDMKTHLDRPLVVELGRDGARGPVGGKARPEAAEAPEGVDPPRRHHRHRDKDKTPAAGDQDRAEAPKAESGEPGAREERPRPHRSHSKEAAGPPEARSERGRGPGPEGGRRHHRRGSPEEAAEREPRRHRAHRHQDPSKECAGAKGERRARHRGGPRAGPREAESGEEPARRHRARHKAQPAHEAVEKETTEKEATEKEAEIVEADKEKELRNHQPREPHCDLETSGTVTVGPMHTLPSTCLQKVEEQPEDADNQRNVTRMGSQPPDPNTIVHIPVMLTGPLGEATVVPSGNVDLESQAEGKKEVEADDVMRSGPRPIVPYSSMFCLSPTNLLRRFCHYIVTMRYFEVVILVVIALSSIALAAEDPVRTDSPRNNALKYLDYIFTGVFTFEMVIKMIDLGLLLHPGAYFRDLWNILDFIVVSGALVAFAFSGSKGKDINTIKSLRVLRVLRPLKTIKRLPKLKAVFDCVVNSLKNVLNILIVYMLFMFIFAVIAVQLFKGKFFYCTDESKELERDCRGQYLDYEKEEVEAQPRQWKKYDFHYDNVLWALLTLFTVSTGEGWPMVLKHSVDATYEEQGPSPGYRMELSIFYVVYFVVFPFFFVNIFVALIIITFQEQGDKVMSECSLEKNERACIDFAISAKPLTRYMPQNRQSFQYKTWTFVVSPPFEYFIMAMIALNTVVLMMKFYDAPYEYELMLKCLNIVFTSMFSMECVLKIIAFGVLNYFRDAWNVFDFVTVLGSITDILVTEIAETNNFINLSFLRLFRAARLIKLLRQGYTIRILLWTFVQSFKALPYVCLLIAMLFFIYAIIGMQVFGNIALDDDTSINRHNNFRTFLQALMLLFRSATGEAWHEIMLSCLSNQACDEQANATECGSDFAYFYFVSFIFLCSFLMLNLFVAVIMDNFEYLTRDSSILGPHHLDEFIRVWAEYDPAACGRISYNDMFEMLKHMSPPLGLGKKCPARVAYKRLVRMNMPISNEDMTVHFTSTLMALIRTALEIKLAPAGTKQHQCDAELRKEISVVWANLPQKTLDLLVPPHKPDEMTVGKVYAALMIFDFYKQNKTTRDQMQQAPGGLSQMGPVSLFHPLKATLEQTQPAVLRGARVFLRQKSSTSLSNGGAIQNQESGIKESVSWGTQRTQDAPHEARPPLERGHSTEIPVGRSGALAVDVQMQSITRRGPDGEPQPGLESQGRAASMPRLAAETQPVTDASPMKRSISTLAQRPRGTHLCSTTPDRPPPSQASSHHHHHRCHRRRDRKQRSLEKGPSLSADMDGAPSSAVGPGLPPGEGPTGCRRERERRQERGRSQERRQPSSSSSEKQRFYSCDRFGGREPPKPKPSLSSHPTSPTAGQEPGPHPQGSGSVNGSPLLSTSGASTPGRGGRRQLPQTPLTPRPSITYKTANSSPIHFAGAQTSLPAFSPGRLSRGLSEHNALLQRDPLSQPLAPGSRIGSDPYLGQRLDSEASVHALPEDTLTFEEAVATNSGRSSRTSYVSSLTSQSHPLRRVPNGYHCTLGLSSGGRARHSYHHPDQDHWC
T4 sequence (Q02410 whole entry): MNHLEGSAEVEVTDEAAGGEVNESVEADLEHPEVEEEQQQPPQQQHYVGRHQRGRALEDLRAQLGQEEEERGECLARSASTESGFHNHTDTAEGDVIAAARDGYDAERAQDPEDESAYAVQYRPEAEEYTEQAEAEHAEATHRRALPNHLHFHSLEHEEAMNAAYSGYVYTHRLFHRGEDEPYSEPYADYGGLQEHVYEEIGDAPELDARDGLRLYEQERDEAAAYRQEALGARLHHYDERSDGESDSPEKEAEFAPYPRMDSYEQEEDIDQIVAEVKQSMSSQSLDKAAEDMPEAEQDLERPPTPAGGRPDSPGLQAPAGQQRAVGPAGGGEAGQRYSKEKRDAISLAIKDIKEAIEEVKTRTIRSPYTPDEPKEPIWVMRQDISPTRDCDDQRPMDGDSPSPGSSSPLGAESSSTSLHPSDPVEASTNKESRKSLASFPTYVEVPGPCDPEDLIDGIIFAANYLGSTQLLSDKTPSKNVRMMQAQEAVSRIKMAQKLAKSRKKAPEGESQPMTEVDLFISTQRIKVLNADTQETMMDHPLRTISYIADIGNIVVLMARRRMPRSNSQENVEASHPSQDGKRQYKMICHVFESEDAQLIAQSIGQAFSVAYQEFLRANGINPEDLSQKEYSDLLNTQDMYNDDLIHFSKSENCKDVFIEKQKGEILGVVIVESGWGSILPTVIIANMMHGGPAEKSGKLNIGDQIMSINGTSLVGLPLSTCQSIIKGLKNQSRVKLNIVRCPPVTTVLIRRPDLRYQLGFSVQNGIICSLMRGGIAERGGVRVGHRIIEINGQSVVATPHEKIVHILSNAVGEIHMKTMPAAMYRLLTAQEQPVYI
Sequence of Cytochrome P450 2C9 (P11712 whole entry): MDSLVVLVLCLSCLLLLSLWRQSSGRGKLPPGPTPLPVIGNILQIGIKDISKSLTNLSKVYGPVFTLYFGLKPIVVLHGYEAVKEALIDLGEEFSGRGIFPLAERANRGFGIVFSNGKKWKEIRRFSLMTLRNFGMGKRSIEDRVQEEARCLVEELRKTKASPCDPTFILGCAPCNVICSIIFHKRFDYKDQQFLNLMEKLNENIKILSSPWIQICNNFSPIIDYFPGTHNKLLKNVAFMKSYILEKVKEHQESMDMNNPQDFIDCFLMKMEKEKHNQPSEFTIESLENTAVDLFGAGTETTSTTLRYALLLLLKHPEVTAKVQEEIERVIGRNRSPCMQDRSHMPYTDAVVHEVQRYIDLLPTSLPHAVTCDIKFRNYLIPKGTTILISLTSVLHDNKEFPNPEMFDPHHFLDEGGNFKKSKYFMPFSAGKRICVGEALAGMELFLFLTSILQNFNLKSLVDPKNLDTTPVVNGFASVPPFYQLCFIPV
Sequence of Cytochrome P450 3A4 (P08684 whole entry): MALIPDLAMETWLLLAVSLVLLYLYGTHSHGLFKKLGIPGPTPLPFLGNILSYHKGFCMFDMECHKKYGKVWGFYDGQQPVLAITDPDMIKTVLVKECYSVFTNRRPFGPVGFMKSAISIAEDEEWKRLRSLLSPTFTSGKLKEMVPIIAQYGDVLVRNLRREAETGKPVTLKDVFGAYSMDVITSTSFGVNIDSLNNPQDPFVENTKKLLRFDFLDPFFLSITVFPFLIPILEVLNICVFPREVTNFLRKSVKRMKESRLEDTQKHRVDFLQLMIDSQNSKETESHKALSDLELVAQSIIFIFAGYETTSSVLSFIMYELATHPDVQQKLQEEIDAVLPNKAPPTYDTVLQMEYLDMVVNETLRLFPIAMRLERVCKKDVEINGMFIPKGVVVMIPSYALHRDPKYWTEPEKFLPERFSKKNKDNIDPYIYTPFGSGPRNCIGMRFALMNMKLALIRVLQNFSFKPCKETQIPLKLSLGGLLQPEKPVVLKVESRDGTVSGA
Sequence of Cytochrome P450 2D6 (P10635 whole entry): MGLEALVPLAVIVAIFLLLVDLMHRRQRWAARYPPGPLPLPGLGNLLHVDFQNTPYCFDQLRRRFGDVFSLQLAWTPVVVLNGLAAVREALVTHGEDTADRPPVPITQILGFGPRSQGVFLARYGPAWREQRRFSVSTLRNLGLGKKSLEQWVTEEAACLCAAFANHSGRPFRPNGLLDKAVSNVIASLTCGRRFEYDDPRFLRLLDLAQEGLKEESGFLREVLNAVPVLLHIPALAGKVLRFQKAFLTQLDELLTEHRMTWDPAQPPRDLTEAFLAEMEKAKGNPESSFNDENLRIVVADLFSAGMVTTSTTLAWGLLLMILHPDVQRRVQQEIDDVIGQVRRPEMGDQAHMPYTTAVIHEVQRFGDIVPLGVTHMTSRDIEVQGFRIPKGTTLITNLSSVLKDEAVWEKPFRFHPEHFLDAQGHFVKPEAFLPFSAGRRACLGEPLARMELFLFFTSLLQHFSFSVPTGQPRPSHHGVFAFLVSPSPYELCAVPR

Compound: O=C(NCc1ccco1)c1scc2c1OCCO2
- IC50 [1]: > 50 µM (inactive)

Compound: CC1=CC(C)(C)N(C(=O)c2ccccc2)c2ccc(C)cc21
- EC50 [2]: 6.89 µM (active)
- AC50 [3]: 29.7 µM (active)
- AC50 [4]: 42.6 µM (active)
- AC50 [5]: 42.2 µM (active)
- AC50 [6]: 7.28 µM (active)

Compound: COc1cccc(C(=O)Nc2nnc(-c3ccccc3)s2)c1
- AC50 [7]: 44.4 µM (active)

Compound: C=CCn1c(SCc2csc(C)n2)nc2sc3c(c2c1=O)CCCC3
- AC50 [8]: 35.8 µM (active)

Compound: O=C(c1ccccc1)C1CN(c2ccccc2)CC1c1ccc(Cl)cc1 (configuration not stated)
- AC50 [9]: 8.91 µM (inconclusive)
- IC50 [1]: > 50 µM (inactive)
- AC50 [10]: 5.01 µM (inconclusive)
- AC50 [11]: 3.16 µM (inconclusive)
- AC50 [12]: 3.55 µM (inconclusive)

Compound: CCS(=O)(=O)c1ccc2oc(Nc3ccccc3C)nc2c1
- AC50 [7]: 78.7 µM (active)

Compound: Cc1cccc(NC(=S)NC2CCCC2)n1
- IC50 [13]: 7.9 µM (active)
- IC50 [14]: > 50 µM (inactive)

Compound: O=C1NC(=O)N(Cc2ccccc2)C(=O)/C1=C/c1cnn(-c2ccccc2)c1
- IC50 [13]: 14.9 µM (active)
- IC50 [14]: > 50 µM (inactive)

Compound: CCCC(=O)NC(c1cccc([N+](=O)[O-])c1)c1ccc2cccnc2c1O (configuration not stated)
- AC50 [15]: 1.75 µM (active)
- AC50 [8]: 4.48 µM (active)
- AC50 [16]: 3.55 µM (active)
- AC50 [17]: 4.25 µM (active)

Compound: Cc1ccc(S(=O)(=O)N2c3ccccc3-c3c(ssc3=S)C2(C)C)cc1
- EC50 [18]: 2.65 µM (active)
- AC50 [8]: 43.5 µM (active)
- EC50 [19]: > 60 µM (not active)

Compound: COC(=O)c1ccc2c(O)nc(CCl)nc2c1
- IC50 [20]: > 20 µM (inactive)
- EC50 [21]: > 20 µM (inactive)
- IC50 [22]: > 20 µM (inactive)
- IC50 [23]: > 20 µM (inactive)

Compound: Cc1cccc(OC(=O)c2sc3ncn(C)c(=O)c3c2C)c1
- EC50 [24]: 19.8 µM (active)
- IC50 [25]: 2.87 µM (active)
- AC50 [7]: > 350 µM (inactive)
- EC50 [26]: > 120 µM (not active)
- EC50 [27]: 2.85 µM (active)
- EC50 [28]: 7.36 µM (active)

Compound: Fc1ccc(SCCc2ccccn2)cc1
- IC50 [1]: > 50 µM (inactive)

Compound: Nc1ccc2oc(=O)c3ccccc3c2c1
- AC50 [7]: 178 µM (active)

Compound: CC(=NNC(=S)Nc1ccccc1)c1ccccn1
- AC50 [8]: 0.0995 µM (active)

Compound: CC1(C)C2CC=C(/C=N/n3cnnc3)C1C2 (configuration not stated)
- IC50 [1]: > 50 µM (inactive)

Compound: O=C(NC1CCCC1)c1cc(-c2ccc(Cl)cc2Cl)on1
- AC50 [7]: > 350 µM (inactive)

Compound: COc1ccc(/C=C/C(=O)c2c(C)cc(C)nc2O)c2ccccc12
- IC50 [20]: 12.4 µM (inactive)
- EC50 [21]: 4.53 µM (active)
- IC50 [22]: 10.1 µM (active)
- EC50 [29]: > 300 µM (not active)
- EC50 [30]: > 300 µM (not active)
- IC50 [23]: > 20 µM (inactive)

Compound: CCCCCOC(=O)Nc1nnc(CCCCC)s1
- IC50 [1]: > 50 µM (inactive)
